Assay results: ChEMBL document CHEMBL5131428, “Discovery of potent antiproliferative agents from selected oxygen heterocycles as EGFR tyrosine kinase inhibitors from the U.S. National Cancer Institute database by in silico screening and bioactivity evaluation” (Bioorg Med Chem Lett, 2022)

Key:
HeLa = assay: Antiproliferative activity against human HeLa cells assessed as cell growth inhibition by MTT assay; assay type: functional, cell-based
[1] = molecular target: T1, Epidermal growth factor receptor (Homo sapiens, UniProt P00533); assay: Inhibition of EGFR tyrosine kinase (unknown origin)
A-431 [2] = assay: Antiproliferative activity against human A-431 cells overexpressing EGFR assessed as cell growth inhibition by MTT assay; assay type: functional, cell-based
A-431 [3] = assay: Antiproliferative activity against human A-431 cells overexpressing EGFR assessed as cell survival at 10 uM relative to control; assay type: functional; settings: read-out: Survival
[4] = molecular target: T1, Epidermal growth factor receptor; assay: Inhibition of EGFR tyrosine kinase (unknown origin) preincubated for 5 mins followed by substrate addition and further incubated for 10 mins in presence of ATP by fluorescence based microplate reader analysis

T1 sequence (P00533 whole entry): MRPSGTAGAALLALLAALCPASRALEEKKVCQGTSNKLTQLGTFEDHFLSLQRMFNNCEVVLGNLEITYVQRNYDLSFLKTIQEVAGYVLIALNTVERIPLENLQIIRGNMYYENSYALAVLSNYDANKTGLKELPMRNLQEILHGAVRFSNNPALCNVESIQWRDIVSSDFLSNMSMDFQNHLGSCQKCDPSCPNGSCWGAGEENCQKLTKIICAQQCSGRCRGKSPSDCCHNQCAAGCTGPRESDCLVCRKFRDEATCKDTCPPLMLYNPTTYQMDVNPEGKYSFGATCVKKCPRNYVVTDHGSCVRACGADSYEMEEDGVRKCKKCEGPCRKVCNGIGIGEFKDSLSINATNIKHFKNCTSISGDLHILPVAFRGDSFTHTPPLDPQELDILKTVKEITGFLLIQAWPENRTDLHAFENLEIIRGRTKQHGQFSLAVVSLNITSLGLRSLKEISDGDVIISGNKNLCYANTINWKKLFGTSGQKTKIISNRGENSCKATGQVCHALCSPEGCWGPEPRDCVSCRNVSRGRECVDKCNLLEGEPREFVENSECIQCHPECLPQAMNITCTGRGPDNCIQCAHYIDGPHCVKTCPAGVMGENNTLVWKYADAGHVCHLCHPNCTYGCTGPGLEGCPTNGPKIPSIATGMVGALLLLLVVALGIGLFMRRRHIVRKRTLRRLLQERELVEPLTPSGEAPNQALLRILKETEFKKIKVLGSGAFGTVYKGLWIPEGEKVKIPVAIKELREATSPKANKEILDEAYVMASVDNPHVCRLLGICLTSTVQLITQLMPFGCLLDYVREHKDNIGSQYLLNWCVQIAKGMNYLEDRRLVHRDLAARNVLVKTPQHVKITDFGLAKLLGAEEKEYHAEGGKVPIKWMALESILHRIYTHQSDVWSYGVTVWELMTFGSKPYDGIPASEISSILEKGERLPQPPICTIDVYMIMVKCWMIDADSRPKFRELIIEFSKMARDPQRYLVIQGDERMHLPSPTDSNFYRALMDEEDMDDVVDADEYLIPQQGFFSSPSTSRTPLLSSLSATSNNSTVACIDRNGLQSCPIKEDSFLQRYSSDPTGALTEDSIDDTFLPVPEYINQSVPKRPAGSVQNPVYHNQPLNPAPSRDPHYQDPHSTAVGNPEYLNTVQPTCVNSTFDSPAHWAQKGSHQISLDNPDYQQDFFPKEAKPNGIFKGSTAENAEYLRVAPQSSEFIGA

| Compound | IC50 (HeLa) [µM] | IC50 [1] [µM] | IC50 (A-431 [2]) [µM] | viability at 10 µM (A-431 [3]) [%] | IC50 [4] [µM] |
| --- | --- | --- | --- | --- | --- |
| COc1ccc(-c2cc(=O)cc(-c3ccc(OC)cc3)o2)cc1 | 8.12 | 0.00015 | 3.81 | < 6 | – |
| O=c1c2ccccc2oc2cc([C@H](O)c3ccccc3)ccc12 | – | – | – | 57 | – |
| O=C1c2ccccc2C(=O)c2c(O)c3c(c(O)c21)CCCC3 | – | – | – | 57 | – |
| O=c1c2cccc(O)c2oc2cccc(O)c12 | – | – | – | – | 0.9 |
| COc1cccc2c1C(=O)C1=C(C2=O)c2c(O)cc(CO)cc2[C@@H](O)[C@@H]1O | 1.74 | 0.00654 | 6.04 | < 6 | – |
| COc1c(O)cc2oc3cc(O)c(CC=C(C)C)c(O)c3c(=O)c2c1CC=C(C)C [MANGOSTIN] | 12 | – | 7.2 | < 6 | – |
| Cc1c2cc(O)c(=O)cc-2oc2cc(O)c(O)cc12 | – | – | – | 57 | – |
| CCc1ccc(C2=C(O)C(=O)C(c3ccc(CC)cc3)=C(O)C2=O)cc1 | 17.3 | 0.0302 | 17.7 | 17 | – |
| C=CC(C)(C)c1c2c(c(O)c3c(=O)c4ccc(O)c(O)c4oc13)C=CC(C)(C)O2 [MACLURAXANTHONE] | 0.95 | – | 2.84 | 49 | – |
| COC1=CC(=C(c2ccc(O)c(OC)c2)c2ccc(O)c(OC)c2)C=CC1=O | – | – | – | 57 | – |
